Assay type in all cases: cell-based, human
One assay concerns CD19+ mKate2+A549 cells. The assay can be described thus: CAR-T tumor spheroid killing assay. As to the method: CD19+ mKate2+A549 cells were produced by lentiviral transduction using pCDH-CMV-CD19 puro and ILV-EF1a-mKate-9-X01 (Flash therapeutics) lentivectors. 1,000 cells were plated 4 days prior to co-culture in low-cluster 96 well plates (Costar #7007) and allowed to form spheroids in DMEM 10% FBS 5% PS. Total CD3+ T cells were isolated by negative selection from PBMCs (Stemcell #17951) and stimulated with Dynabeads at a ratio of 1:3 (beads:cell). Cells were cultured at 1 million per ml in X-VIVO 15 with 5% PS, 5% decomplemented human serum (Sigma) and 50 μM 2-mercaptoethanol (GIBCO #31350-010). 24 hours following TCR stimulation 100,000 cells in 100 μl were co-transduced with 100 μl of lentivector viral particles (pTRIP-SFFV-GFP or pTRIP-SFFV-GFPRELAK5R) combined with the CAR lentivirus (rLV.EFA.19BBz, Flash therapeutics) at a multiplicity of infection (MOI) of 10 (corresponding usually to less than 1 μl). Spinoculation was carried out at 1200 g for 2 hours at 25° C. Cells were expanded for 48 hours with fresh media and 300 U/ml IL-2. 3 days following transduction T cells were stained with CD19 CAR detection reagent (miltenyi 130-115-965) for 15 minutes at 4° C., washed twice and subsequently with secondary antibody (invitrogen #S21374) for 30 minutes at 4° C. Cells were fixed and acquired on a FACSVerse (BD). The next day, Dynabeads were removed by magnetic separation and 250, 500 or 1,000 CAR+ cells were added per well of A549 spheroids in quadruplicates. Plates were then placed in an IncuCyteS3 and images were acquired using a 10× objective ([…]/pixel) every 3 hours for 5 to 6 days. Images were analysed using the IncuCyte S3 software. At the end of the culture, supernatants were harvested and assayed for IFN concentrations.

The test system of another assay is cGAS. The assay can be described thus: cGAS localization by confocal microscopy in CD4+ T cells. The settings on record: activated CD4+ T cells overexpressing IRF3 or RELA K5R, FIG. 5D, 5E. The procedure: 4 to 5 days following transduction, 500,000 cells were plated on 0.1% poly-L lysine in water (Sigma #8920) coated coverslips and left for 30 minutes to attach. Cells were fixed in PBS 4% paraformaldehyde for 20 minutes at room temperature (RT). Coverslips were washed twice in PBS and quenched with 500 μl of freshly prepared PBS Glycine (375 mg Glycine in 50 mL of PBS) for 10 minutes at room temperature. […] Coverslips were incubated with primary antibody against cGAS (clone D1 D3G) or isotype control (clone DA1E) at a concentration of 0.085 μg/ml in PBS 0.2% BSA 0.05% saponin and left overnight at 4° C. in a moist chamber. Coverslips were washed 5 times with PBS 0.2% BSA 0.05% saponin and incubated in secondary antibody goat anti-Rabbit IgG at 1:400 (Invitrogen #A21246) for 45 minutes at RT. Coverslips were washed 5 times with PBS 0.2% BSA 0.05% saponin, rinsed in water and mounted on a glass slide using 10 μl fluoromount-G with DAPI (Invitrogen #00-4959-520). Glass slides were allowed to dry in a 37° C. chamber for 30 minutes and stored at 4° C. Images were acquired on a Leica Dml8 inverted microscope equipped with an SP8 confocal unit using a 40× (1.3 NA) oil objective. Image analysis was performed using Fiji software^77. […] Average cGAS and GFP intensities were measured in the whole cell, the nuclei and the cytosol (defined by the whole cell excluding the nuclear region).

The test system of assay [1] is IFNL1 and IFNB transcripts. The assay can be described thus: RT-qPCR gene expression analysis in CD4+ T cells. The conditions noted are these: IRF3 over-expression in CD4+ T cells, data not shown. The procedure:
RNA was extracted from 0.4-1 million cells using the Nucleospin RNA II kits (Macherey-Nagel #740955.50). cDNA was synthesized using random primers (invitrogen #48190-011) from 0.1 μg RNA using Superscript III Reverse transcriptase (fisher scientific #18080044). Real-time qPCR (RT-qPCR) was carried out in 20 μl reactions using SYBR Green I Master (Roche #4887352001). Primers used were as follows: […]

For “RELA K5R: RELA mutant converting five lysine residues (K122, K123, K310, K314, K315) to arginine, expressed from lentivector”, in the assay with CD19+ mKate2+A549 cells (6 days co-culture, all dilutions of CART and RELA K5R cells), the “IFNL1 at the end of co-culture” value is “detected”. In addition, the “tumor growth with lower numbers of CAR T cells” value in the assay on CD19+ mKate2+A549 cells (FIG. 6F, left panel) was “delay of tumor growth was also observed”. In addition, the “tumor spheroid size / elimination of tumor cells” value in the assay with CD19+ mKate2+A549 cells (co-culture 5-6 days, CAR-positive cell numbers normalized, FIG. 6E, 6F) is listed as “significantly more efficiently eliminated”. In addition, the “proliferation rates as cause of improved killing capacity” value with CD19+ mKate2+A549 cells (data not shown) was “not due to increased proliferation rates”. In addition, the “cGAS localization (predominantly nuclear)” value in the assay on cGAS is “remained unchanged”.

B1: IRF3: interferon Regulatory Factor 3, over-expressed from lentivector (protein, UniProt Q14653 1-427, looked up)
Interferon regulatory factor 3: MGTPKPRILPWLVSQLDLGQLEGVAWVNKSRTRFRIPWKHGLRQDAQQEDFGIFQAWAEATGAYVPGRDKPDLPTWKRNFRSALNRKEGLRLAEDRSKDPHDPHKIYEFVNSGVGDFSQPDTSPDTNGGGSTSDTQEDILDELLGNMVLAPLPDPGPPSLAVAPEPCPQPLRSPSLDNPTPFPNLGPSENPLKRLLVPGEEWEFEVTAFYRGRQVFQQTISCPEGLRLVGSEVGDRTLPGWPVTLPDPGMSLTDRGVMSYVRHVLSCLGGGLALWRAGQWLWAQRLGHCHTYWAVSEELLPNSGHGPDGEVPKDKEGGVFDLGPFIVDLITFTEGSGRSPRYALWFCVGESWPQDQPWTKRLVMVKVVPTCLRALVEMARVGGASSLENTVDLHISNSHPLSLTSDQYKAYLQDLVEGMDFQGPGES
As to B1, the “cGAS localization (predominantly nuclear)” value in the assay on cGAS was “remained unchanged”. For the same molecule, in assay [1], the “IFNL1 and IFNB transcripts in response to cGAMP” value was “increased”.

Values taken from patent publication US20250213614A1, “Modified RELA Protein for Inducing Interferon Expression and Engineered Immune Cells with Improved Interferon Expression” (Institut Curie, priority 2022, published 2025).
